# Test system: CAL-120
# Assay: normalised viability (% of control), CellTiter-Blue; higher = more viable cells (about 100 = DMSO control)
# Settings: 10000 nM; incubation time: 72 h
# Method in brief: (§1)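 Vehicle (100) and a positive kill control (0) anchored the normalisation of each plate, and Z'-factor was used for quality control. Breast cancer cell lines in 20 µl suspension were incubated 72 h over compound in 5 µl medium in 384-well plates, followed by CellTiter-Blue at 560/590 nm. The value is normalised viability at a single listed concentration of the series.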
row,Structure (SMILES),normalised viability [%]
1,O=C(O)C(=O)O.[NH-][C@@H]1CCCC[C@H]1[NH-].[Pt+2] [Oxaliplatin],52.2
2,Cc1ccc(-c2cc(C(F)(F)F)nn2-c2ccc(S(N)(=O)=O)cc2)cc1 [Celecoxib],81.9
3,NCCCNCCSP(=O)(O)O [Amifostine],82.1
4,C[C@H]1C[C@@H]2[C@H]([C@@H](O)C[C@@]3(C)[C@H]2CC[C@]3(O)C(=O)CO)[C@@]2(C)C=CC(=O)C=C12 [Methylprednisolone],81.1
5,CCc1cncnc1N1CCN(Cc2nc3ccc(C(F)(F)F)cc3[nH]2)CC1,132
6,Oc1ncc(N(CCCl)CCCl)c(O)n1 [Uracil mustard],82.5
7,CC1=C(/C=C/C(C)=C/C=C/C(C)=C/C(=O)O)C(C)(C)CCC1 [Tretinoin],92.8

# Test system: SK-BR-3
# Assay: as above
# Settings: 1 nM; incubation time: 72 h
# Method in brief: as §1
row,Structure (SMILES),normalised viability [%]
1,COc1cc2c(Oc3ccc4[nH]c(C)cc4c3F)ncnc2cc1OCCCN1CCCC1 [Cediranib],100
2,C=CC(=O)N1CCC[C@@H](n2nc(-c3ccc(Oc4ccccc4)cc3)c3c(N)ncnc32)C1,91.9
3,Cc1cnc(NC(=O)Nc2cc(Br)c(C)cc2OC[C@@H]2CNCCO2)cn1,98.9

# Same assay, conditions: 10 nM; incubation time: 72 h
row,Structure (SMILES),normalised viability [%]
1,Nc1nc(F)nc2c1ncn2[C@@H]1O[C@H](CO)[C@@H](O)[C@@H]1O [Fludarabine],98.6
2,O=C(O)C1(C(=O)O)CCC1.[NH2-].[NH2-].[Pt+2] [Carboplatin],100
3,N#Cc1ccc(C(c2ccc(C#N)cc2)n2cncn2)cc1 [Letrozole],79.4
4,C1CN1c1nc(N2CC2)nc(N2CC2)n1 [Triethylenemelamine],105
5,CCCS(=O)(=O)Nc1ccc(F)c(C(=O)c2c[nH]c3ncc(-c4ccc(Cl)cc4)cc23)c1F [Vemurafenib],88.5
6,O=C(O)C(=O)O.[NH-][C@@H]1CCCC[C@H]1[NH-].[Pt+2] [Oxaliplatin],98.1
7,Cc1ccc(-c2cc(C(F)(F)F)nn2-c2ccc(S(N)(=O)=O)cc2)cc1 [Celecoxib],87.6
8,NCCCNCCSP(=O)(O)O [Amifostine],81.9
9,C[C@H]1C[C@@H]2[C@H]([C@@H](O)C[C@@]3(C)[C@H]2CC[C@]3(O)C(=O)CO)[C@@]2(C)C=CC(=O)C=C12 [Methylprednisolone],107
10,CCc1cncnc1N1CCN(Cc2nc3ccc(C(F)(F)F)cc3[nH]2)CC1,105
11,Oc1ncc(N(CCCl)CCCl)c(O)n1 [Uracil mustard],109
12,CC1=C(/C=C/C(C)=C/C=C/C(C)=C/C(=O)O)C(C)(C)CCC1 [Tretinoin],103

# Same assay, conditions: 100 nM; incubation time: 72 h
row,Structure (SMILES),normalised viability [%]
1,COc1cc2c(Oc3ccc4[nH]c(C)cc4c3F)ncnc2cc1OCCCN1CCCC1 [Cediranib],95.7
2,C=CC(=O)N1CCC[C@@H](n2nc(-c3ccc(Oc4ccccc4)cc3)c3c(N)ncnc32)C1,24.9
3,Cc1cnc(NC(=O)Nc2cc(Br)c(C)cc2OC[C@@H]2CNCCO2)cn1,101

# Same assay, conditions: 1000 nM; incubation time: 72 h
row,Structure (SMILES),normalised viability [%]
1,Nc1nc(F)nc2c1ncn2[C@@H]1O[C@H](CO)[C@@H](O)[C@@H]1O [Fludarabine],93.3
2,O=C(O)C1(C(=O)O)CCC1.[NH2-].[NH2-].[Pt+2] [Carboplatin],103
3,N#Cc1ccc(C(c2ccc(C#N)cc2)n2cncn2)cc1 [Letrozole],103
4,C1CN1c1nc(N2CC2)nc(N2CC2)n1 [Triethylenemelamine],109
5,CCCS(=O)(=O)Nc1ccc(F)c(C(=O)c2c[nH]c3ncc(-c4ccc(Cl)cc4)cc23)c1F [Vemurafenib],93.8
6,O=C(O)C(=O)O.[NH-][C@@H]1CCCC[C@H]1[NH-].[Pt+2] [Oxaliplatin],122
7,Cc1ccc(-c2cc(C(F)(F)F)nn2-c2ccc(S(N)(=O)=O)cc2)cc1 [Celecoxib],90.2
8,NCCCNCCSP(=O)(O)O [Amifostine],92.6
9,COc1cc2c(Oc3ccc4[nH]c(C)cc4c3F)ncnc2cc1OCCCN1CCCC1 [Cediranib],104
10,C[C@H]1C[C@@H]2[C@H]([C@@H](O)C[C@@]3(C)[C@H]2CC[C@]3(O)C(=O)CO)[C@@]2(C)C=CC(=O)C=C12 [Methylprednisolone],97.6
11,CCc1cncnc1N1CCN(Cc2nc3ccc(C(F)(F)F)cc3[nH]2)CC1,104
12,C=CC(=O)N1CCC[C@@H](n2nc(-c3ccc(Oc4ccccc4)cc3)c3c(N)ncnc32)C1,21.7
13,Oc1ncc(N(CCCl)CCCl)c(O)n1 [Uracil mustard],95.1
14,Cc1cnc(NC(=O)Nc2cc(Br)c(C)cc2OC[C@@H]2CNCCO2)cn1,30.1
15,CC1=C(/C=C/C(C)=C/C=C/C(C)=C/C(=O)O)C(C)(C)CCC1 [Tretinoin],66

# Same assay, conditions: 10000 nM; incubation time: 72 h
row,Structure (SMILES),normalised viability [%]
1,Nc1nc(F)nc2c1ncn2[C@@H]1O[C@H](CO)[C@@H](O)[C@@H]1O [Fludarabine],77.8
2,O=C(O)C1(C(=O)O)CCC1.[NH2-].[NH2-].[Pt+2] [Carboplatin],113
3,N#Cc1ccc(C(c2ccc(C#N)cc2)n2cncn2)cc1 [Letrozole],85.2
4,C1CN1c1nc(N2CC2)nc(N2CC2)n1 [Triethylenemelamine],105
5,CCCS(=O)(=O)Nc1ccc(F)c(C(=O)c2c[nH]c3ncc(-c4ccc(Cl)cc4)cc23)c1F [Vemurafenib],95
6,O=C(O)C(=O)O.[NH-][C@@H]1CCCC[C@H]1[NH-].[Pt+2] [Oxaliplatin],47.5
7,Cc1ccc(-c2cc(C(F)(F)F)nn2-c2ccc(S(N)(=O)=O)cc2)cc1 [Celecoxib],79.7
8,NCCCNCCSP(=O)(O)O [Amifostine],93.3
9,C[C@H]1C[C@@H]2[C@H]([C@@H](O)C[C@@]3(C)[C@H]2CC[C@]3(O)C(=O)CO)[C@@]2(C)C=CC(=O)C=C12 [Methylprednisolone],91.4
10,CCc1cncnc1N1CCN(Cc2nc3ccc(C(F)(F)F)cc3[nH]2)CC1,117
11,Oc1ncc(N(CCCl)CCCl)c(O)n1 [Uracil mustard],79.8
12,CC1=C(/C=C/C(C)=C/C=C/C(C)=C/C(=O)O)C(C)(C)CCC1 [Tretinoin],45

# Test system: HDQ-P1
# Assay: as above
# Settings: 0.3 nM; incubation time: 72 h
# Method in brief: as §1
row,Structure (SMILES),normalised viability [%]
1,COc1cc2c(Oc3ccc4[nH]c(C)cc4c3F)ncnc2cc1OCCCN1CCCC1 [Cediranib],84.8
2,C=CC(=O)N1CCC[C@@H](n2nc(-c3ccc(Oc4ccccc4)cc3)c3c(N)ncnc32)C1,130
3,Cc1cnc(NC(=O)Nc2cc(Br)c(C)cc2OC[C@@H]2CNCCO2)cn1,104
